Test results reported in patent publication US20230404976A1, “PHARMACEUTICAL COMBINATION CONTAINING CAPSID PROTEIN INHIBITOR AND NUCLEOSIDE ANALOG” (priority 2020, published 2023).

Tested on: HBV DNA in mouse serum (rAAV8-1.3HBV, type D, ayw)
Test: AAV/HBV mouse model: qPCR quantification of HBV DNA in mouse serum
Assay type: in vivo, C57BL/6 mice
Details: for HBV DNA (log10, copy/μL) time (days) post-dose: 3: day 3; for HBV DNA (log10, copy/μL) time (days) post-dose: 3 / HBV DNA (log10, copy/μL) time (days) post-dose: 7 / HBV DNA (log10, copy/μL) time (days) post-dose: 14 / HBV DNA (log10, copy/μL) time (days) post-dose: 21 / HBV DNA (log10, copy/μL) time (days) post-dose: 28: i.g. days 0-27; for HBV DNA (log10, copy/μL) time (days) post-dose: 7: day 7; for HBV DNA (log10, copy/μL) time (days) post-dose: 14: day 14; for HBV DNA (log10, copy/μL) time (days) post-dose: 21: day 21; for HBV DNA (log10, copy/μL) time (days) post-dose: −1: day −1 (before first dose)
Description: Male C57BL/6 mice, 5 weeks old, free of specific pathogens, purchased from Shanghai Slac Laboratory Animal Co., Ltd., housed in independent ventilated cages. The mice were acclimatized for 3 days and then injected with the AAV/HBV virus.
rAAV8-1.3HBV (type D, ayw) was purchased from FivePlus, Beijing. It was diluted with sterile PBS to 5×10^11 v.g./mL before experiment. Each mouse was injected with 200 μL, i.e., 1×10^11 v.g.
AAV/HBV injection: rAAV8-1.3HBV was prepared into a 1×10^11 v.g./200 μL solution with sterile PBS in advance before injection. Mice were injected with 200 μL of the rAAV8-1.3HBV solution via the tail vein.
Grouping: On day 27 post virus injection, according to the serum HBV DNA, HBeAg and HBsAg results on days 14 and 21, the mice were randomized into groups of 8 or 4 and correspondingly treated according to the experimental design.
Group number: • i. Solvent group; • ii. Monotherapy group: entecavir; • iii. Monotherapy group: the compound of formula I 3 mpk; • iv. Combination group (combo): the compound of formula I 3 mpk and entecavir; • v. Monotherapy group: the compound of formula I 10 mpk; • vi. Combination group (combo): the compound of formula I 10 mpk and entecavir.
Compound treatment: On day 28 post infection, all mice were intragastrically administered a solvent or compound. The day of the first administration was counted as day 0 of experiment, and the duration of administration was from day 0 to day 27. Entecavir was administered once daily (QD) and the compound of formula I was administered twice daily (BID, 8 hr/16 hr apart). The administration volume was 10 mL/kg.
Non-endpoint blood collection: On day −1, 3, 7, 14, 21, 28, 35 or 42, about 120 μL of blood was collected from the submandibular vein, and serum was collected and assayed for HBV DNA. If blood collection and administration were on the same day, blood collection was performed about 5 hours after the first administration on that day.
Endpoints of experiment: mice in groups i-iv were euthanized on day 28. Blood was collected from the hearts of the mice, and serum was collected and assayed for HBV DNA. The endpoints of experiment for groups v and vi were on day 42.
qPCR Quantification of HBV DNA in mouse serum: The DNA was extracted from serum, and the experiment was performed by following the instructions for QIAamp 96 DNA Blood Kit. qPCR conditions: 95 ° C., 10 min, 1 cycle; 95° C., 15 s; 60° C., 1 min; 40 cycles.
Data were expressed as mean ±standard error, and statistical analysis was performed using Student t test.

[1] = entecavir 0.001 mg/kg QD, compound of formula I 3 mg/kg BID, mean ± standard error, LLOQ 2.08
[2] = day 28 (endpoint), entecavir 0.001 mg/kg QD, compound of formula I 3 mg/kg BID, mean ± standard error, LLOQ 2.08
[3] = Table 4 groups: entecavir 0.001 mg/kg QD, compound of formula I 3 mg/kg BID, i.g., mean ± standard error
[4] = compound of formula I 10 mg/kg BID, entecavir 0.001 mg/kg QD, values below LLOQ expressed as 2.08

Structure (SMILES) | HBV DNA (log10, copy/μL) time (days) post-dose: 3 [1] | HBV DNA (log10, copy/μL) time (days) post-dose: 7 [1] | HBV DNA (log10, copy/μL) time (days) post-dose: 14 [1] | HBV DNA (log10, copy/μL) time (days) post-dose: 21 [1] | HBV DNA (log10, copy/μL) time (days) post-dose: 28 [2] | HBV DNA (log10, copy/μL) time (days) post-dose: −1 [3] | HBV DNA (log10, copy/μL) time (days) post-dose: 14 [4] | HBV DNA (log10, copy/μL) time (days) post-dose: 21 [4] | HBV DNA (log10, copy/μL) time (days) post-dose: 28 (day 28, compound of formula I 10 mg/kg BID, entecavir 0.001 mg/kg QD, values below LLOQ expressed as 2.08) | HBV DNA (log10, copy/μL) time (days) post-dose: 31 (day 31 (after end of dosing on day 27), compound of formula I 10 mg/kg BID, entecavir 0.001 mg/kg QD, i.g., LLOQ 2.08) | HBV DNA (log10, copy/μL) time (days) post-dose: 35 (day 35 (after end of dosing on day 27), compound of formula I 10 mg/kg BID, entecavir 0.001 mg/kg QD, i.g., LLOQ 2.08) | HBV DNA (log10, copy/μL) time (days) post-dose: 42 (day 42 (endpoint, after end of dosing on day 27), compound of formula I 10 mg/kg BID, entecavir 0.001 mg/kg QD, i.g., LLOQ 2.08) | HBV DNA (log10, copy/μL) time (days) post-dose: −1 (Table 5 groups: compound of formula I 10 mg/kg BID, entecavir 0.001 mg/kg QD, i.g., mean ± standard error)
C=C1[C@H](CO)[C@@H](O)C[C@@H]1n1cnc2c(=O)[nH]c(N)nc21 [Entecavir, 2-amino-9-[(1S,3R,4S)-4-hydroxy-3-hydroxymethyl-2-methylenecyclopentyl]-1,9-dihydro-6H-purin-6-one, reference compound] | 3.11 ± 0.10 log10, copy/μL | 2.69 ± 0.11 log10, copy/μL | 2.75 ± 0.13 log10, copy/μL | 2.79 ± 0.12 log10, copy/μL | 2.70 ± 0.17 log10, copy/μL | 4.19 ± 0.12 log10, copy/μL |  |  |  |  |  |  | 
C[C@]1(NC(=O)C(=O)c2c(Cl)c(C(=O)Nc3cc(F)c(F)c(F)c3)c3n2CCC3)CC[C@H](CC(=O)O)CC1 [Compound of formula I, 2-((1r,4r)-4-(2-(6-chloro-7((3,4,5-trifluorophenyl)carbamoyl)-2,3-dihydro-1H-pyrrolin-5-yl)-2-oxalylamino)-4-methylcyclohexyl)acetic acid] | 3.71 ± 0.10 log10, copy/μL | 3.63 ± 0.09 log10, copy/μL | 3.71 ± 0.06 log10, copy/μL | 3.61 ± 0.11 log10, copy/μL | 3.96 ± 0.11 log10, copy/μL | 4.46 ± 0.07 log10, copy/μL | 2.10 ± 0.02 log10, copy/μL | 2.08 ± 0.00 log10, copy/μL | 2.12 ± 0.04 log10, copy/μL | 3.56 ± 0.12 log10, copy/μL | 4.38 ± 0.09 log10, copy/μL | 4.64 ± 0.08 log10, copy/μL | 4.45 ± 0.07 log10, copy/μL
